The values that follow come from BindingDB's records for doi:10.1016/S0045-2068(03)00026-9 (Keio University, 2003).

The structures appear in SMILES notation.

The target in this experiment is T1, Polyphenol oxidase 2 (Agaricus bisporus, UniProt O42713).
T1 sequence (O42713 whole entry): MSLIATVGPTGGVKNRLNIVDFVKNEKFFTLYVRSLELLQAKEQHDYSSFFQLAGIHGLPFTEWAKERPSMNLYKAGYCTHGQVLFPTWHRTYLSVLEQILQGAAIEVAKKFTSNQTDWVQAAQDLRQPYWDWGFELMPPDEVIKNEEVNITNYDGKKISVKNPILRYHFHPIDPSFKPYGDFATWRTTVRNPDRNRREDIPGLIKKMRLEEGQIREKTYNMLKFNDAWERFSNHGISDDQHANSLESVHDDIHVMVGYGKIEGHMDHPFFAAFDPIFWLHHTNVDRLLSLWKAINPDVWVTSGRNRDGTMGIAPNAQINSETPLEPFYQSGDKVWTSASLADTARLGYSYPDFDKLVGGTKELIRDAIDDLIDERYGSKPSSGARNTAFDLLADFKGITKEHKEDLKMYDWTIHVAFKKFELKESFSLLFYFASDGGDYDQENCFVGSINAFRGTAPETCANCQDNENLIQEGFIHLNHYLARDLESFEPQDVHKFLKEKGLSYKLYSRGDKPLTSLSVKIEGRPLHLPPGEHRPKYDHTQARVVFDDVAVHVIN
In words: Spectrophotometic Assay. As to conditions: pH 6.8; 30 °C. The source says: The IC50 values were obtained from a spectrophotometric assay.
The IC50 is the concentration that inhibits the measured activity by half. Low readings indicate greater potency in that assay, high ones weaker potency in that assay. `O=NN(O)Cc1ccccc1O` [N-nitrosohydroxylamine N-substituted, 4]: it took 19.2 µM to reach half-maximal inhibition (IC50). That is a double-digit micromolar value.
As for `O=NN(O)Cc1cc(O)ccc1O` [N-nitrosohydroxylamine N-substituted, 8], the figure is 23.8 µM; as for `O=NN(O)Cc1ccc(O)cc1O` [N-nitrosohydroxylamine N-substituted, 7], 11.6 µM; as for `COc1ccc(CN(O)N=O)cc1` [N-nitrosohydroxylamine N-substituted, 10], 9.7 µM.
Consider `CC(C)(C)c1ccc(CN(O)N=O)cc1` [N-nitrosohydroxylamine N-substituted, 11], for which the half-maximal inhibitory concentration (IC50) worked out at 15.8 µM.
For the compound `O=NN(O)Cc1ccc(O)cc1` [N-nitrosohydroxylamine N-substituted, 6], 13.7 µM corresponded to half-maximal inhibition (IC50). This IC50 and that of the compound before are within 1.5-fold of each other.
The compound `O=NN(O)Cc1cccc(O)c1` [N-nitrosohydroxylamine N-substituted, 5] returned an IC50 of 20.3 µM.
For the compound `O=NN(O)Cc1ccc(Cl)cc1` [N-nitrosohydroxylamine N-substituted, 9], half-maximal inhibition (IC50) required 13.1 µM.
